Results: the supplement of paper PMC11451515

Columns and labels:
Details in all cases: 48 h
NOMO1 [1] = test: cell viability relative to DMSO control; higher = less cytotoxic
Outline: (§1)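 Library compounds in DMSO were pin-dosed in an 11-point threefold series (47 μM to 0.79 nM) onto leukemia cells in 1536-well plates (5 μl). Plates held 500 cells/well of NOMO1 or SEM or 1000 cells/well of P12-Ichikawa, each adapted for at least four passages in each medium. Luminescence was read with CellTiter-Glo One after 48 h at 37°C. Viability means the per-plate percentage relative to DMSO wells, using cell-free wells as background.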

SEM cells [2] = test: as above
Outline: as §1

P12-Ichikawa [3] = test: as above
Outline: as §1

NOMO1 [4] = test: AUC of viability dose-response curve (% viability x log10 dose units); higher = less sensitive
Outline: (§2)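 Over 48 h at 37°C, leukemia cells in 1536-well plates (500 or 1000 cells/well), adapted to each medium, received library compounds in DMSO at 11 threefold doses from 47 μM to 0.79 nM. CellTiter-Glo One luminescence, normalised per plate to DMSO and cell-free wells, was fitted by a four-parameter log-logistic function of log10 dose. The area under the curve was then integrated by trapezoidal rule, after scaling curves above full viability and removing those that failed quality control.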

SEM cells [5] = test: as above
Outline: as §2

P12-Ichikawa [6] = test: as above
Outline: as §2

N#C[C@@H]1C[C@@H]2C[C@@H]2N1C(=O)[C@@H](N)C12CC3CC(CC(O)(C3)C1)C2
cell viability [%]
Details	NOMO1 [1]	P12-Ichikawa [3]	SEM cells [2]
HPLM + 10% dialyzed FBS, 0.000781 µM	139	121	–
HPLM + 10% dialyzed FBS, 0.00234 µM	118	123	–
HPLM + 10% dialyzed FBS, 0.00702 µM	124	115	–
HPLM + 10% dialyzed FBS, 0.0211 µM	134	122	–
HPLM + 10% dialyzed FBS, 0.0632 µM	129	122	–
HPLM + 10% dialyzed FBS, 0.19 µM	129	114	–
HPLM + 10% dialyzed FBS, 0.569 µM	127	122	–
HPLM + 10% dialyzed FBS, 1.71 µM	106	110	–
HPLM + 10% dialyzed FBS, 5.12 µM	96.6	109	–
HPLM + 10% dialyzed FBS, 15.4 µM	32.2	110	–
HPLM + 10% dialyzed FBS, 46.1 µM	5.88	108	–
RPMI 5 mM glucose + 10% FBS, 0.000781 µM	120	132	113
RPMI 5 mM glucose + 10% FBS, 0.00234 µM	109	123	109
RPMI 5 mM glucose + 10% FBS, 0.00702 µM	118	120	105
RPMI 5 mM glucose + 10% FBS, 0.0211 µM	124	120	104
RPMI 5 mM glucose + 10% FBS, 0.0632 µM	109	116	108
RPMI 5 mM glucose + 10% FBS, 0.19 µM	116	123	96.6
RPMI 5 mM glucose + 10% FBS, 0.569 µM	111	128	102
RPMI 5 mM glucose + 10% FBS, 1.71 µM	110	107	87.5
RPMI 5 mM glucose + 10% FBS, 5.12 µM	113	111	79
RPMI 5 mM glucose + 10% FBS, 15.4 µM	112	110	82.2
RPMI 5 mM glucose + 10% FBS, 46.1 µM	67.3	97.6	79.4
RPMI 5 mM glucose + 10% dialyzed FBS, 0.000781 µM	122	122	118
RPMI 5 mM glucose + 10% dialyzed FBS, 0.00234 µM	125	128	115
RPMI 5 mM glucose + 10% dialyzed FBS, 0.00702 µM	106	121	110
RPMI 5 mM glucose + 10% dialyzed FBS, 0.0211 µM	125	118	110
RPMI 5 mM glucose + 10% dialyzed FBS, 0.0632 µM	131	124	111
RPMI 5 mM glucose + 10% dialyzed FBS, 0.19 µM	123	114	110
RPMI 5 mM glucose + 10% dialyzed FBS, 0.569 µM	132	121	115
RPMI 5 mM glucose + 10% dialyzed FBS, 1.71 µM	122	123	108
RPMI 5 mM glucose + 10% dialyzed FBS, 5.12 µM	118	112	108
RPMI 5 mM glucose + 10% dialyzed FBS, 15.4 µM	97.9	111	117
RPMI 5 mM glucose + 10% dialyzed FBS, 46.1 µM	44.6	108	94.5

AUC of viability dose-response curve
Details	NOMO1 [4]	P12-Ichikawa [6]	SEM cells [5]
HPLM + 10% dialyzed FBS	400	462	465
RPMI 5 mM glucose + 10% FBS	466	433	426
RPMI 5 mM glucose + 10% dialyzed FBS	450	451	455

Cc1n[nH]c(C)c1Cc1sc2c(c1C(=O)N1C[C@H](O)CO1)c(=O)n(C)c(=O)n2CC(C)C
cell viability [%]
Details	NOMO1 [1]	P12-Ichikawa [3]	SEM cells [2]
HPLM + 10% dialyzed FBS, 0.000781 µM	–	116	81.6
HPLM + 10% dialyzed FBS, 0.00234 µM	–	117	102
HPLM + 10% dialyzed FBS, 0.00702 µM	–	119	90.5
HPLM + 10% dialyzed FBS, 0.0211 µM	–	121	105
HPLM + 10% dialyzed FBS, 0.0632 µM	–	109	80.3
HPLM + 10% dialyzed FBS, 0.19 µM	–	98.8	79.3
HPLM + 10% dialyzed FBS, 0.569 µM	–	93.4	67.7
HPLM + 10% dialyzed FBS, 1.71 µM	–	92.6	68
HPLM + 10% dialyzed FBS, 5.12 µM	–	94.3	62.2
HPLM + 10% dialyzed FBS, 15.4 µM	–	91.4	58.4
HPLM + 10% dialyzed FBS, 46.1 µM	–	83.4	43.4
RPMI 5 mM glucose + 10% FBS, 0.000781 µM	107	117	110
RPMI 5 mM glucose + 10% FBS, 0.00234 µM	105	118	111
RPMI 5 mM glucose + 10% FBS, 0.00702 µM	102	131	116
RPMI 5 mM glucose + 10% FBS, 0.0211 µM	100	120	122
RPMI 5 mM glucose + 10% FBS, 0.0632 µM	102	109	98.2
RPMI 5 mM glucose + 10% FBS, 0.19 µM	102	107	106
RPMI 5 mM glucose + 10% FBS, 0.569 µM	109	95.6	89.1
RPMI 5 mM glucose + 10% FBS, 1.71 µM	99.1	95.8	85.2
RPMI 5 mM glucose + 10% FBS, 5.12 µM	93.9	84.3	87.9
RPMI 5 mM glucose + 10% FBS, 15.4 µM	106	89.9	85.9
RPMI 5 mM glucose + 10% FBS, 46.1 µM	109	83.8	63.5
RPMI 5 mM glucose + 10% dialyzed FBS, 0.000781 µM	105	113	97.8
RPMI 5 mM glucose + 10% dialyzed FBS, 0.00234 µM	109	118	105
RPMI 5 mM glucose + 10% dialyzed FBS, 0.00702 µM	117	114	108
RPMI 5 mM glucose + 10% dialyzed FBS, 0.0211 µM	102	114	103
RPMI 5 mM glucose + 10% dialyzed FBS, 0.0632 µM	116	107	96.2
RPMI 5 mM glucose + 10% dialyzed FBS, 0.19 µM	104	98.2	88.8
RPMI 5 mM glucose + 10% dialyzed FBS, 0.569 µM	115	91.6	103
RPMI 5 mM glucose + 10% dialyzed FBS, 1.71 µM	122	92	93.1
RPMI 5 mM glucose + 10% dialyzed FBS, 5.12 µM	113	94	87.4
RPMI 5 mM glucose + 10% dialyzed FBS, 15.4 µM	119	88.5	85
RPMI 5 mM glucose + 10% dialyzed FBS, 46.1 µM	99.7	83.7	74.8

AUC of viability dose-response curve
Details	NOMO1 [4]	P12-Ichikawa [6]	SEM cells [5]
HPLM + 10% dialyzed FBS	456	416	366
RPMI 5 mM glucose + 10% FBS	476	410	408
RPMI 5 mM glucose + 10% dialyzed FBS	468	417	444
